# Test results taken from publication PMC5882934, “Acute metabolic actions of the major polyphenols in chamomile: an in vitro mechanistic study on their potential to attenuate postprandial hyperglycaemia” (Scientific Reports, 2018).
# Read-outs that look alike come from different tables or passages of the source.
# Key:
# GLUT2 = molecular target: T1, GLUT2 (Homo sapiens, UniProt P11168); test: D-[U-14C]-glucose transport across Caco-2/TC7 monolayers under Na+-free conditions (only GLUT2 active); assay type: cell-based; conditions: for apparent increase in inhibitory activity under Na+-free conditions: versus Na+ present
# T1 construct: endogenous in cells; host or cells: Caco-2/TC7
# T1 sequence (P11168 1-524): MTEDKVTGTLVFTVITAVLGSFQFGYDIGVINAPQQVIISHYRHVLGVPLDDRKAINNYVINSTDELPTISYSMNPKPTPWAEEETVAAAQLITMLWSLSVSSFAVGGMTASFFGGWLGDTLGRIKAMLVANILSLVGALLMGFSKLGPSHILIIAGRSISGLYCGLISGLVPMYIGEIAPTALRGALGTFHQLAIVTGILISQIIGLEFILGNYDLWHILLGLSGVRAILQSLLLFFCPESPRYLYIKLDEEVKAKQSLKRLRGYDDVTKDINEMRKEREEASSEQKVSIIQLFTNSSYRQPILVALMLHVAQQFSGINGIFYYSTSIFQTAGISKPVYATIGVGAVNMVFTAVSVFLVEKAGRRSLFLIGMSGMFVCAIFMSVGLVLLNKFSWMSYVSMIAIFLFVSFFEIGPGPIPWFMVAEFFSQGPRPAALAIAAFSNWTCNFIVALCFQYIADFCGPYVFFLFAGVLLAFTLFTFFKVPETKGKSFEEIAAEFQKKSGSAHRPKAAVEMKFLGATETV
# Excerpt: To dissect the mechanism of inhibition of glucose transport, we conducted D-[U-^14C]-glucose transport experiments under Na^+-free conditions where only GLUT2, and not SGLT1, is active. […] When tested in combination under Na^+-free conditions, apigenin 7-O-glucoside and apigenin (Fig. 6C-3) were responsible for ~80% of the inhibitory activity observed by the whole ChE (p < 0.05) (Fig. 6C-4).
# Since the main inhibition we found was on GLUT2, we investigated the binding affinities of apigenin and apigenin 7-O-glucoside. […] This was also confirmed by functional assays where the rate of D-[U-^14C]-glucose transport under Na^+-free conditions was the same from apical to basolateral compartments and vice versa (Fig. 7B). Inhibition constants for the exofacial glucose transporter inhibitor 4,6-O-ethylidene glucose and the endofacial glucose transporter inhibitor cytochalasin B on basolateral to apical D-[U-^14C]-glucose transport were compared to those for apigenin and apigenin 7-O-glucoside (Fig. 7C–E). […] This comparison is made assuming that the position of GLUT2 is the same when facing the apical and the intracellular space, which seems to hold based on the rate of D-[U-^14C]-glucose transport across the monolayers in both directions.
# (§1) Caco-2/TC7 cells were cultured and transport experiments performed as fully described before.
# Caco-2/TC7 cells [1] = test: D-[U-14C]-glucose transport across Caco-2/TC7 cell monolayers in the presence of Na+; assay type: cell-based; conditions: for effect on D-[U-14C]-glucose transport: data not shown
# Excerpt: (§2) Caco-2/TC7 cells transported 0.08 mmol of D-[U-^14C]-glucose from the apical to the basolateral compartment across the cell monolayers in the presence of Na^+, where the sugar transporter Na^+/glucose co-transporter 1 (SGLT1) is active, in addition to the facilitated transporters GLUT2 and GLUT5 (Fig. 6A-1). D-[U-^14C]-sucrose must first be hydrolysed by brush border sucrase and the resulting products, fructose and glucose, are transported into and across the cells.
# as §1
# [2] = enzymatic hydrolysis by digestive hydrolytic enzymes (hesperidinase, acetone rat intestinal extract); assay type: in vitro ADME
# Method: Supplementary S3. Enzymatic hydrolysis of Kaempferol 3-O-glucoside (positive control) and (E)-MCAG. (A) Kaempferol 3-O-glucoside standard (300 µM). (B) Kaempferol standard (100 uM). (C) Kaempferol 3-O-glucoside hydrolysed with hesperidinase. (D) Kaempferol 3-O-glucoside hydrolysed with acetone rat intestinal extract. (E) Kaempferol 3-O-glucoside hydrolysed with pancreatin. (F) (E)-MCAG (500 µM) hydrolysed with hesperidinase. (G) (E)-MCAG (500 µM) hydrolysed hydrolysed with acetone rat intestinal extract. The enzymatic hydrolysis were conducted with 50 mg/mL of the respective enzyme for 3 h at 37 °C.
# Caco-2/TC7 cells [3] = test: D-[U-14C]-sucrose transport across Caco-2/TC7 cell monolayers; assay type: cell-based; conditions: data not shown
# Excerpt: as §2, §1
# Caco-2/TC7 cells [4] = test: D-[U-14C]-fructose transport across Caco-2/TC7 cell monolayers; assay type: cell-based; conditions: data not shown
# Excerpt: as §2, §1
# human α-amylase [5] = molecular target: T2, human α-amylase (Homo sapiens, UniProt P0DUB6); test: human α-amylase inhibition assay; assay type: biochemical; conditions: for maximum inhibition of human α-amylase: individual (poly)phenol, maximum value of dose response, p < 0.05; for Ki: Dixon plot, intercept = -Ki
# T2 sequence (P0DUB6 16-511): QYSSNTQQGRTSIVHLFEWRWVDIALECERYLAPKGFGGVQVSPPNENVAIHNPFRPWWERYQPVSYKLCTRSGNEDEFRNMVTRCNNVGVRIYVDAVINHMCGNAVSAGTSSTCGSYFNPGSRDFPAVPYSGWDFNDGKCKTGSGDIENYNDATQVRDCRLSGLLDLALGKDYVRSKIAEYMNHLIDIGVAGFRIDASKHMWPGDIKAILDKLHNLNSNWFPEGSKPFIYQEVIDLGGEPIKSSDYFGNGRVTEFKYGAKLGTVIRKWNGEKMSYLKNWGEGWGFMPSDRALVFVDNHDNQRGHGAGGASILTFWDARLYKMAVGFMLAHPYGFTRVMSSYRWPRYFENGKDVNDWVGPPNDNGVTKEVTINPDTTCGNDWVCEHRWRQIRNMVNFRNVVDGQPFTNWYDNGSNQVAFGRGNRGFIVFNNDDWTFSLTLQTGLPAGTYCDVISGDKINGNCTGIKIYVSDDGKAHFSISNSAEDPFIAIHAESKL
# Method: The human α-amylase and rat α-glucosidase inhibition assays were performed under optimised conditions as previously reported[3],[18],[52]. The ChE stock solution was dissolved in DMSO while the individual (poly)phenols were prepared in a water-EtOH solution (50:50, v/v).
# human α-amylase [6] = molecular target: T2, human α-amylase; set-up: method as in doi:10.1016/j.jff.2015.10.003; conditions: strong (poly)phenol inhibitors, arbitrarily defined; cited from earlier work
# [7] = set-up: method as in PMID 12086760, PMID 12876091; conditions: population with impaired glucose tolerance; cited from earlier work
# yeast α-glucosidase = conditions: cited from earlier work
# Caco-2/TC7 cells [8] = test: conversion of apigenin 7-O-glucoside to apigenin by differentiated Caco-2/TC7 cells; assay type: in vitro ADME; conditions: 150 µM, 25 and 60 min
# Method: Glycosylated (poly)phenols can be hydrolysed by luminal β-glucosidase enzymes, such as lactase phlorizin hydrolase[19],[20], present in the brush border of the enterocytes, resulting in the release of the aglycone. Therefore, we explored the possibility whether the inhibition observed by apigenin-7-O-glucoside was due to the presence of apigenin after enzymic hydrolysis. Caco-2/TC7 cells were incubated with 150 µM apigenin 7-O-glucoside for 25 and 60 min. In vitro conversion of apigenin 7-O-glucoside to apigenin in Caco2/TC7 cells was negligible (Supplementary S5) confirming that apigenin 7-O-glucoside can interact directly with GLUT2 transporter protein.
# Cells were seeded at 2.4 × 10^5 cells/well on 6-well plates (Corning, Appleton Woods, UK) and cultured for 21–23 d at 37 °C as described above. Cells were exposed to 150 μM of apigenin 7-O-glucoside for 25 and 60 min. After the treatment the medium was collected and analysed by HPLC as detailed above.
# [9] = test system: rat intestinal α-glucosidase; set-up: method as in PMID 28422509; conditions: p-nitrophenyl-glucopyranoside substrate; cited from earlier work
# GLUT1 [10] = test system: GLUT1; set-up: method as in PMID 26238658; conditions: cited from earlier work
# [11] = solubility limit in enzyme assay; assay type: physicochemical
# GLUT1 [12] = test system: GLUT1; set-up: method as in PMID 24932809; conditions: cited from earlier work
# sucrase-isomaltase = molecular target: sucrase-isomaltase; set-up: method as in PMID 18681440; conditions: cited from earlier work
# maltase-glucoamylase = molecular target: maltase-glucoamylase; set-up: method as in PMID 18681440; conditions: cited from earlier work
smiles,measurement,setting,value
"CC1OC[C@H]2O[C@H](O)[C@H](O)[C@@H](O)[C@@H]2O1 (some centres unmarked) [4,6-ethylidine glucose, 4,6-O-ethylidene glucose, reference compound]",fold lower inhibition of transport basolateral to apical versus apical to basolateral,GLUT2; Na+-free,3 fold
same,IC50,"GLUT2; Na+-free, apical to basolateral, read-out: a → b IC50",15000 µM
"COc1ccc(/C=C/C(=O)O)c(O[C@@H]2O[C@H](CO)[C@@H](O)[C@H](O)[C@H]2O)c1 [(E)-MCAG, (E)−2-β-D-Glucopyranosyloxy-4-methoxycinnamic acid]",effect on D-[U-14C]-glucose transport,Caco-2/TC7 cells [1],no effect
same,substrate for rat intestinal enzymes,[2],not a substrate
same,resistance to digestive hydrolytic enzymes,"[2]; 500 µM, 50 mg/mL enzyme, 3 h at 37 °C",resistant
same,effect on D-[U-14C]-sucrose transport,Caco-2/TC7 cells [3],no effect
same,effect on D-[U-14C]-fructose transport,Caco-2/TC7 cells [4],no effect
same,maximum inhibition of human α-amylase,human α-amylase [5],~ 20%
"COc1ccc(/C=C\C(=O)O)c(OC2O[C@H](CO)[C@@H](O)[C@H](O)[C@H]2O)c1 (stereo partly drawn) [(Z)-MCAG, (Z)-2-D-Glucopyranosyloxy-4-methoxycinnamic acid]",effect on D-[U-14C]-glucose transport,Caco-2/TC7 cells [1],no effect
same,effect on D-[U-14C]-sucrose transport,Caco-2/TC7 cells [3],no effect
same,effect on D-[U-14C]-fructose transport,Caco-2/TC7 cells [4],no effect
same,maximum inhibition of human α-amylase,human α-amylase [5],~ 25%
"C=C1[C@@H](C)[C@H]2[C@H](Cc3ccccc3)NC(=O)[C@]23OC(=O)/C=C/[C@H](O)CCC[C@@H](C)C/C=C/[C@H]3[C@@H]1O [Cytochalasin B, cytochalasin B, reference compound]",IC50,"GLUT2; a → b IC50, Na+-free, apical to basolateral",2.3 µM
same,IC50,"GLUT2; b → a IC50, Na+-free, basolateral to apical",7.6 µM
O=C(O[C@@H]1Cc2c(O)cc(O)cc2O[C@@H]1c1cc(O)c(O)c(O)c1)c1cc(O)c(O)c(O)c1 [EGCG],IC50,human α-amylase [6],< 100 µM
C[C@H]1O[C@H](O[C@H]2[C@H](O)[C@@H](O)[C@@H](O[C@H]3[C@H](O)[C@@H](O)C(O)O[C@@H]3CO)O[C@@H]2CO)[C@H](O)[C@@H](O)[C@@H]1N[C@H]1C=C(CO)[C@@H](O)[C@H](O)[C@H]1O (some centres unmarked) [acarbose],reduction of the risk of cardiovascular events,[7],49%
same,reduction of the risk of type 2 diabetes,[7],25%
"O=c1cc(-c2ccc(O)cc2)oc2cc(O[C@@H]3O[C@H](CO)[C@@H](O)[C@H](O)[C@H]3O)cc(O)c12 [apigenin 7-O-glucoside, apigenin-7-O-glucoside]",IC50 yeast α-glucosidase,yeast α-glucosidase,29.7 µg/mL
same,in vitro conversion to apigenin,Caco-2/TC7 cells [8],negligible
same,inhibition of rat intestinal α-glucosidase activity,[9],inhibited
same,fold lower inhibition of transport basolateral to apical versus apical to basolateral,GLUT2; Na+-free,3 fold
same,apparent increase in inhibitory activity under Na+-free conditions,GLUT2,~ 50%
same,Ki,human α-amylase [5],17 ± 4 µM
same,fold lower inhibition of human α-amylase than apigenin,human α-amylase [5]; in vitro results,~ 10 fold
O=c1cc(-c2ccc(O)cc2)oc2cc(O)cc(O)c12 [apigenin],fold higher effect than apigenin 7-O-glucoside at equivalent concentrations,"Caco-2/TC7 cells [1]; D-[U-14C]-glucose and D-[U-14C]-sucrose transport, apigenin 50 µM",3 fold
same,IC50,yeast α-glucosidase,22 µM
same,IC50 yeast α-glucosidase,yeast α-glucosidase,25.5 µg/mL
same,inhibition of yeast α-glucosidase,yeast α-glucosidase; p-nitrophenyl-glucopyranoside substrate,did not inhibit
same,GLUT1 expression,GLUT1 [10],lowered
same,solubility,[11],limited solubility prohibited testing at concentrations >50 µM
same,GLUT1 expression,GLUT1 [12],lowered
same,fold lower inhibition of transport basolateral to apical versus apical to basolateral,GLUT2; Na+-free,3 fold
same,apparent increase in inhibitory activity under Na+-free conditions,GLUT2,~ 50%
same,fold increase in inhibitory activity on human α-amylase versus apigenin 7-O-glucoside,human α-amylase [5],~ 10 fold
same,Ki,human α-amylase [5],146 ± 39 µM
O=c1ccc2cc(O)c(O)cc2o1 [esculetin],IC50,sucrase-isomaltase,72 µM
same,IC50,maltase-glucoamylase,534 µM
O=c1cc(-c2ccc(O)c(O)c2)oc2cc(O)cc(O)c12 [luteolin],IC50,human α-amylase [6],< 100 µM
O=c1c(O)c(-c2ccc(O)c(O)c2)oc2cc(O)cc(O)c12 [quercetin],IC50,sucrase-isomaltase,71 µM
same,IC50,human α-amylase [6],< 100 µM
same,IC50,maltase-glucoamylase,216 µM
